Where no end group is shown, it is not given here.
Assays:
P. aeruginosa KCTC1637 = assay type: cell-based, Pseudomonas aeruginosa; conditions: KCTC1637, 16 h
MDRPA CCARM 2095 = assay type: cell-based, multidrug-resistant P. aeruginosa; conditions: broth microdilution, 37°C, 16 h, three independent experiments in triplicate, SD 14.0%
MDRAB CCARM 12036 = assay type: cell-based, multidrug-resistant Acinetobacter baumanii; conditions: broth microdilution, 37°C, 16 h, three independent experiments in triplicate, SD 14.0%
MDRPA CCARM 2003 = assay type: cell-based, multidrug-resistant P. aeruginosa; conditions: broth microdilution, 37°C, 16 h, three independent experiments in triplicate, SD 14.0%
S. aureus KCTC1916 = assay type: cell-based, Staphylococcus aureus; conditions: KCTC1916, 16 h
B. subtilis KCTC3068 = assay type: cell-based, Bacillus subtilis; conditions: KCTC3068, 16 h
P. aeruginosa KCTC2004 = assay type: cell-based, Pseudomonas aeruginosa; conditions: KCTC2004, 16 h
P. aeruginosa KCTC2513 = assay type: cell-based, Pseudomonas aeruginosa; conditions: KCTC2513, 16 h
S. aureus KCTC3881 = assay type: cell-based, Staphylococcus aureus; conditions: KCTC3881, 16 h
MDRAB CCARM 12037 = assay type: cell-based, multidrug-resistant Acinetobacter baumanii; conditions: broth microdilution, 37°C, 16 h, three independent experiments in triplicate, SD 14.0%
MRSA CCARM3089 = assay type: cell-based, Methicillin-resistant S. aureus; conditions: CCARM3089, 16 h
E. coli KCTC2593 = assay type: cell-based, Escherichia coli; conditions: KCTC2593, 16 h
MDRST CCARM 8009 = assay type: cell-based, multidrug-resistant S. typhimurium; conditions: broth microdilution, 37°C, 16 h, three independent experiments in triplicate, SD 14.0%
S. typhimurium KCTC1926 = assay type: cell-based, Salmonella typhimurium; conditions: KCTC1926, 16 h
[1] = system: Drug-resistant bacterial strains; conditions: average over the 18 drug-resistant bacterial strains of Table 3
Text: Escherichia coli KCTC 1682, E. coli KCTC 2593, E. coli KCTC 2571, Salmonella typhimurium KCTC 1926, Pseudomonas aeruginosa KCTC 1637, P. aeruginosa KCTC 2004, P. aeruginosa KCTC 2513, Bacillus subtilis KCTC 3068, B. subtilis KCTC 1021, B. subtilis KCTC 1022, Staphylococcus epidermidis KCTC 1917, Staphylococcus aureus KCTC 1621, S. aureus KCTC 1916, and S. aureus KCTC 3881 were purchased from the Korean Collection for Type Cultures, Korea Research Institute of Bioscience & Biotechnology (Taejon, Korea). Methicillin-resistant S. aureus (MRSA) (CCARM 3089, CCARM 3090, CCARM 3108, CCARM 3114, and CCARM 3126), multidrug-resistant E. coli (MDREC) (CCARM 1229 and CCARM 1238), multidrug-resistant S. typhimurium (MDRST) (CCARM 8003, CCARM 8007, and CCARM 8009), multidrug-resistant Acinetobacter baumanii (MDRAB) (CCARM 12005, CCARM 12035, CCARM 12036, CCARM 12037), and multidrug-resistant P. aeruginosa (MDRPA) (CCARM 2002, CCARM 2003, CCARM 2095, and CCARM 2163) were obtained from the Culture Collection of Antibiotic-Resistant Microbes (CCARM) at Seoul Women’s University in Korea. The antimicrobial activities of the peptides against selected organisms, including three Gram-positive, three Gram-negative, and five antibiotic-resistant bacteria, were determined using a broth microdilution assay. Briefly, single colonies of bacteria and fungi were inoculated into Luria-Bertani (LB) medium and cultured overnight at 37°C. An aliquot of the culture was transferred to 10 mL of fresh LB and incubated for an additional 3–5 h at 37°C until it reached the mid-logarithmic phase. Two-fold serial dilutions of the peptides in 1% peptone were prepared. The serial dilutions (100 µL) were added to 100 µL of cells (2×10^6 colony-forming units (CFU)/mL) in 96-well microtiter plates and incubated at 37°C for 16 h. […] MIC values were calculated as the average of triplicate measurements from three independent assays.

B. subtilis KCTC1021 = assay type: cell-based, Bacillus subtilis; conditions: KCTC1021, 16 h
S. epidermidis KCTC1917 = assay type: cell-based, Staphylococcus epidermidis; conditions: KCTC1917, 16 h
MDRPA CCARM 2163 = assay type: cell-based, multidrug-resistant P. aeruginosa; conditions: broth microdilution, 37°C, 16 h, three independent experiments in triplicate, SD 14.0%
MRSA CCARM 3090 = assay type: cell-based, Methicillin-resistant S. aureus; conditions: CCARM 3090, 16 h
MDREC CCARM 1229 = assay type: cell-based, multidrug-resistant E. coli; conditions: broth microdilution, 37°C, 16 h, three independent experiments in triplicate, SD 14.0%
S. aureus KCTC1621 = assay type: cell-based, Staphylococcus aureus; conditions: KCTC1621, 16 h
MRSA CCARM 3126 = assay type: cell-based, Methicillin-resistant S. aureus; conditions: CCARM 3126, 16 h
[2] = system: Standard bacterial strains; assay type: cell-based; conditions: average over the 14 standard bacterial strains of Table 2
MDRAB CCARM 12035 = assay type: cell-based, multidrug-resistant Acinetobacter baumanii; conditions: broth microdilution, 37°C, 16 h, three independent experiments in triplicate, SD 14.0%
MDRST CCARM 8007 = assay type: cell-based, multidrug-resistant S. typhimurium; conditions: broth microdilution, 37°C, 16 h, three independent experiments in triplicate, SD 14.0%
MDRPA CCARM 2002 = assay type: cell-based, multidrug-resistant P. aeruginosa; conditions: broth microdilution, 37°C, 16 h, three independent experiments in triplicate, SD 14.0%
E.coli KCTC2571 = assay type: cell-based, Escherichia coli; conditions: KCTC2571, 16 h
E. coli KCTC1682 = assay type: cell-based, Escherichia coli; conditions: KCTC1682, 16 h
MRSA CCARM 3114 = assay type: cell-based, Methicillin-resistant S. aureus; conditions: CCARM 3114, 16 h
MDRST CCARM 8003 = assay type: cell-based, multidrug-resistant S. typhimurium; conditions: broth microdilution, 37°C, 16 h, three independent experiments in triplicate, SD 14.0%
B. subtilis KCTC1022 = assay type: cell-based, Bacillus subtilis; conditions: KCTC1022, 16 h
MRSA CCARM 3108 = assay type: cell-based, Methicillin-resistant S. aureus; conditions: CCARM 3108, 16 h
MDREC CCARM 1238 = assay type: cell-based, multidrug-resistant E. coli; conditions: broth microdilution, 37°C, 16 h, three independent experiments in triplicate, SD 14.0%
MDRAB CCARM 12005 = assay type: cell-based, multidrug-resistant Acinetobacter baumanii; conditions: broth microdilution, 37°C, 16 h, three independent experiments in triplicate, SD 14.0%

Sequence	MIC (P. aeruginosa KCTC1637)	MIC (MDRPA CCARM 2095)	MIC (MDRAB CCARM 12036)	MIC (MDRPA CCARM 2003)	MIC (S. aureus KCTC1916)	MIC (B. subtilis KCTC3068)	MIC (P. aeruginosa KCTC2004)	MIC (P. aeruginosa KCTC2513)	MIC (S. aureus KCTC3881)	MIC (MDRAB CCARM 12037)	MIC (MRSA CCARM3089)	MIC (E. coli KCTC2593)	MIC (MDRST CCARM 8009)	MIC (S. typhimurium KCTC1926)	Average MIC [1]	MIC (B. subtilis KCTC1021)	MIC (S. epidermidis KCTC1917)	MIC (MDRPA CCARM 2163)	MIC (MRSA CCARM 3090)	MIC (MDREC CCARM 1229)	also measured
AFHHIFRGIVHVGKTIHRLVTG [Pis-F1A]	4.0 µM	2.0 µM	2.0 µM	2.0 µM	1.0 µM	4.0 µM	4.0 µM	8.0 µM	2.0 µM	2.0 µM	8.0 µM	2.0 µM	8.0 µM	8.0 µM	5.3 µM	4.0 µM	2.0 µM	2.0 µM	8.0 µM	8.0 µM	MIC (S. aureus KCTC1621): 1.0 µM; MIC (MRSA CCARM 3126): 8.0 µM; Average MIC [2]: 3.2 µM; MIC (MDRAB CCARM 12035): 2.0 µM; MIC (MDRST CCARM 8007): 8.0 µM; MIC (MDRPA CCARM 2002): 2.0 µM; MIC (E.coli KCTC2571): 2.0 µM; MIC (E. coli KCTC1682): 2.0 µM; MIC (MRSA CCARM 3114): 8.0 µM; MIC (MDRST CCARM 8003): 8.0 µM; MIC (B. subtilis KCTC1022): 1.0 µM; MIC (MRSA CCARM 3108): 8.0 µM; MIC (MDREC CCARM 1238): 8.0 µM; MIC (MDRAB CCARM 12005): 2.0 µM
FAHHIFRGIVHVGKTIHRLVTG [Pis-F2A]	4.0 µM	4.0 µM	4.0 µM	4.0 µM	1.0 µM	4.0 µM	8.0 µM	8.0 µM	2.0 µM	4.0 µM	16 µM	2.0 µM	16 µM	16 µM	12 µM	8.0 µM	2.0 µM	4.0 µM	16 µM	16 µM	MIC (S. aureus KCTC1621): 4.0 µM; MIC (MRSA CCARM 3126): 16 µM; Average MIC [2]: 4.6 µM; MIC (MDRAB CCARM 12035): 4.0 µM; MIC (MDRST CCARM 8007): 16 µM; MIC (MDRPA CCARM 2002): 4.0 µM; MIC (E.coli KCTC2571): 2.0 µM; MIC (E. coli KCTC1682): 2.0 µM; MIC (MRSA CCARM 3114): 16 µM; MIC (MDRST CCARM 8003): 32 µM; MIC (B. subtilis KCTC1022): 1.0 µM; MIC (MRSA CCARM 3108): 16 µM; MIC (MDREC CCARM 1238): 16 µM; MIC (MDRAB CCARM 12005): 4.0 µM
FFHHIARGIVHVGKTIHRLVTG [Pis-F6A]	4.0 µM	4.0 µM	4.0 µM	4.0 µM	2.0 µM	4.0 µM	8.0 µM	16 µM	4.0 µM	4.0 µM	32 µM	2.0 µM	16 µM	16 µM	15 µM	16 µM	4.0 µM	4.0 µM	32 µM	32 µM	MIC (S. aureus KCTC1621): 4.0 µM; MIC (MRSA CCARM 3126): 16 µM; Average MIC [2]: 6.3 µM; MIC (MDRAB CCARM 12035): 4.0 µM; MIC (MDRST CCARM 8007): 16 µM; MIC (MDRPA CCARM 2002): 4.0 µM; MIC (E.coli KCTC2571): 4.0 µM; MIC (E. coli KCTC1682): 2.0 µM; MIC (MRSA CCARM 3114): 16 µM; MIC (MDRST CCARM 8003): 32 µM; MIC (B. subtilis KCTC1022): 2.0 µM; MIC (MRSA CCARM 3108): 16 µM; MIC (MDREC CCARM 1238): 32 µM; MIC (MDRAB CCARM 12005): 4.0 µM
FFHHIFRGIKHVGKTIHRLVTG [Pis-V10K]	1.0 µM	2.0 µM	2.0 µM	2.0 µM	2.0 µM	1.0 µM	2.0 µM	2.0 µM	1.0 µM	2.0 µM	8.0 µM	2.0 µM	4.0 µM	1.0 µM	3.8 µM	4.0 µM	1.0 µM	2.0 µM	8.0 µM	4.0 µM	MIC (S. aureus KCTC1621): 1.0 µM; MIC (MRSA CCARM 3126): 4.0 µM; Average MIC [2]: 1.6 µM; MIC (MDRAB CCARM 12035): 2.0 µM; MIC (MDRST CCARM 8007): 4.0 µM; MIC (MDRPA CCARM 2002): 2.0 µM; MIC (E.coli KCTC2571): 2.0 µM; MIC (E. coli KCTC1682): 1.0 µM; MIC (MRSA CCARM 3114): 4.0 µM; MIC (MDRST CCARM 8003): 8.0 µM; MIC (B. subtilis KCTC1022): 2.0 µM; MIC (MRSA CCARM 3108): 4.0 µM; MIC (MDREC CCARM 1238): 4.0 µM; MIC (MDRAB CCARM 12005): 2.0 µM
FFHHIKRGIKHVGKTIHRLVTG [Pis-F6K/V10K]	4.0 µM	2.0 µM	4.0 µM	4.0 µM	4.0 µM	4.0 µM	8.0 µM	8.0 µM	4.0 µM	4.0 µM	8.0 µM	4.0 µM	8.0 µM	8.0 µM	6.4 µM	8.0 µM	4.0 µM	2.0 µM	8.0 µM	8.0 µM	MIC (S. aureus KCTC1621): 4.0 µM; MIC (MRSA CCARM 3126): 8.0 µM; Average MIC [2]: 5.0 µM; MIC (MDRAB CCARM 12035): 4.0 µM; MIC (MDRST CCARM 8007): 8.0 µM; MIC (MDRPA CCARM 2002): 4.0 µM; MIC (E.coli KCTC2571): 4.0 µM; MIC (E. coli KCTC1682): 2.0 µM; MIC (MRSA CCARM 3114): 8.0 µM; MIC (MDRST CCARM 8003): 16 µM; MIC (B. subtilis KCTC1022): 4.0 µM; MIC (MRSA CCARM 3108): 8.0 µM; MIC (MDREC CCARM 1238): 8.0 µM; MIC (MDRAB CCARM 12005): 4.0 µM
